Source: PMC6562422, “Huzhangoside A Suppresses Tumor Growth through Inhibition of Pyruvate Dehydrogenase Kinase Activity” (Cancers, 2019)

Legend:
MDA-MB-231 cells = assay: MTT cell viability assay; type: cell-based, human; conditions: 3 μM, 24 h
HT-29 cells = assay: MTT cell viability assay; type: cell-based, human; conditions: 3 μM, 24 h
Hep3B cells = assay: MTT cell viability assay; type: cell-based, human; conditions: 3 μM, 24 h
DLD-1 cells [1] = assay: MTT cell viability assay; type: cell-based, human
Method: (§1) The cytotoxic effect of Hu.A was confirmed using a MTT assay. Briefly, DLD-1 cells (10^5 cells per well) were seeded in a 24-well plate and incubated overnight. The cells were then shifted to serum-free media and treated with Hu.A. MTT solution (2 mg/mL) was then added to the cells. The absorbance of formazan crystals formed were measured using a Spectramax M2 microplate reader (Molecular Devices, Sunnyvale, CA, USA) at 540 nm.

LLC cells = assay: MTT cell viability assay; type: cell-based, murine; conditions: 3 μM, 24 h, serum free medium
Method: as §1
Supplementary materials Huzhangoside A Suppresses Tumor
Growth through Inhibition of Pyruvate
Dehydrogenase Kinase Activity
Choong-Hwan Kwak, Jung-Hee Lee, Eun-Yeong Kim, Chang Woo Han, Keuk-Jun Kim, Hanna Lee, MyoungLae Cho, Se Bok Jang, Cheorl-Ho Kim, Tae-Wook Chung and Ki-Tae Ha
Figure S1. Hu.A inhibited cell viability and phosphorylation of PDHA in LLC cells. (A) The LLC cells were treated with indicated concentrations of Hu.A in serum free medium for 24 h and MTT assay was performed. The data was indicated as mean ± SD. * p < 0.05 and *** p < 0.001 compared with the control. (B) In serum free condition, the LLC cells were treated with indicated concentrations of Hu.A for 4 h. The levels of phosphor-PDHA and total PDHA were analyzed by Western blotting assay. (C) Schematic diagram of the mechanisms of Hu.A-mediated apoptosis was shown. The red circle and white P indicated phosphates. […]

GST-PDHK1 = target: T1, GST-PDHK1 (Homo sapiens, UniProt Q15118); assay: In vitro PDHK kinase assay (GST-PDHK1, recombinant PDHA, western blot); type: biochemical; conditions: phosphorylation of recombinant PDHA by western blot
T1 construct: expressed in transfected cells; host or cells: HEK293T
T1 sequence (Q15118 29-436): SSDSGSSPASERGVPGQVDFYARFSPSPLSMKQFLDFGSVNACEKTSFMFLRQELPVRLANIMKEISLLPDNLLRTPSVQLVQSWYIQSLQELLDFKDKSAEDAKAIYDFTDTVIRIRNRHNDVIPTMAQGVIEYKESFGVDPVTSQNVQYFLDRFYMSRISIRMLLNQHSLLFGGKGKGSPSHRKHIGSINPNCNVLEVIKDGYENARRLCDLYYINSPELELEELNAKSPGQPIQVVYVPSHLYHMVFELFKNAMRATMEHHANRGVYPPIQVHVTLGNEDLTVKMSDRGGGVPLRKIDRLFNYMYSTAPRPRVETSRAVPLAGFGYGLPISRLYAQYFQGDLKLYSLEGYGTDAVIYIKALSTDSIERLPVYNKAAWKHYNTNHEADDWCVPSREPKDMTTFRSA
Method: The kinase assay of PDHK1 was carried out as described previously. Briefly, HEK293T cells, transfected with GST-PDHK1 construct, were lysed, and the lysate was incubated with Glutathione Sepharose 4B beads (Amersham Biosciences, Uppsala, Sweden). The beads were washed and recombinant PDHA was added and incubated for 5 min at 30 °C in the kinase buffer. The phosphorylation of PDHA was analyzed by western blot analysis.

DLD-1 cells [2] = assay: O2 consumption assay; type: cell-based, human; conditions: serum-free medium, 6 h
Method: The O2 consumption rate was determined using the Oxygen Consumption Rate Assay Kit (Cayman Chemical, Ann Arbor, MI, USA) following the manufacturer’s protocol. The fluorescence of the oxygen probe was measured using the Spectramax M2 microplate reader at wavelengths of 380/650 nm.

DLD-1 cells [3] = assay: Lactate production assay; type: cell-based, human
Method: Lactate in the cell culture medium was analyzed by a lactate fluorometric assay kit (Biovision, Milpitas, CA, USA) and measured using the Spectramax M2 microplate reader at 570 nm.

PDHK1 [4] = target: T2, PDHK1 (Homo sapiens, UniProt Q15118); assay: ATP-binding assay; conditions: His-tagged PDHK1 on Ni-NTA beads, 37 °C
T2 construct: made in house; host or cells: Escherichia coli BL21(DE3)
T2 sequence (Q15118 29-436): as above
Method: The cloned PDHK1 was expressed in Escherichia coli BL21(DE3). The overexpressed protein was purified using affinity chromatography and gel filtration chromatography. The purified His-tagged PDHK1 was bound to Ni-NTA beads in binding buffer (20 mM HEPES-K^+ (pH 7.2) and 0.05% BSA) at 4 °C. The Ni-NTA beads with bound His-tagged PDHK1 were washed with the binding buffer followed by incubation with [α-^32P]ATP, ATP, and Hu.A at 37 °C. The beads were then washed with wash buffer (PBS). The bead-bound PDHK1 protein was achieved by 250 mM imidazole, and its radioactivity was detected by liquid scintillation counting.

PDHK and PDC E2 subunit = target: T3, PDHK and PDC E2 subunit (Homo sapiens, UniProt Q15118); assay: PDC subunits and PDHK binding assay; conditions: 500 μM Hu.A, GST-PDHK1 pull-down, HEK293T lysate
T3 construct: expressed in transfected cells; host or cells: HEK293T (GST-PDHK1 transfected; E2 endogenous from HEK293T whole cell lysate)
T3 sequence (Q15118 29-436): as above
T3 sequence (P10515 87-647 partner): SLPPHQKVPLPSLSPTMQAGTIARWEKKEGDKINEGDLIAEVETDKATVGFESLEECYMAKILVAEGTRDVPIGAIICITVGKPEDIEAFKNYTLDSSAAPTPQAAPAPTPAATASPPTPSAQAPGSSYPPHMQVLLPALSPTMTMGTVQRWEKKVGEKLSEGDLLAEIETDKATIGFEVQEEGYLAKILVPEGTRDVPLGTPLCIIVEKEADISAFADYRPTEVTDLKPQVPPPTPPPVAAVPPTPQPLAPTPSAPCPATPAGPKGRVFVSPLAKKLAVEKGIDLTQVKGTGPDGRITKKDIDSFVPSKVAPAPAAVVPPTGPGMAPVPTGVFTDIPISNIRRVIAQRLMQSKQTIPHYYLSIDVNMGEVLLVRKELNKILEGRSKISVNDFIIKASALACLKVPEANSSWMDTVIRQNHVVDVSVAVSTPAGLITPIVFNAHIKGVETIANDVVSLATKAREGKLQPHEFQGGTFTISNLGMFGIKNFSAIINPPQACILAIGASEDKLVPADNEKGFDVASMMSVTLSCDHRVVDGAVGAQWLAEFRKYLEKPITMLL
Method: HEK293T cells, transfected with GST-PDHK1 construct, were lysed and incubated with Glutathione Sepharose 4B beads. The beads were washed and HEK293T whole cell lysate was added with/without 500 μM of Hu.A and the samples were analyzed by western blot analysis.

LLC cell allograft = assay: LLC tumor allograft in C57BL/6 mice; type: in vivo
Method: LLC cells (5 × 10^5 cells/100 μL PBS) were injected into the dorsal subcutaneous skin of C57BL/6 mice (n = 8 mice per group). The control (untreated) group and Hu.A-treated groups were administered 0 mg/kg and 0.1 mg/kg, 0.5 mg/kg, and 1 mg/kg of Hu.A in 100 μL PBS/20 g via intraperitoneal (i.p.) injection for 14 days, respectively. The mice were killed 14 days after inoculation of LLC cells and the tumors were seceded from the mice and analyzed. The volumes of LLC cell derived-tumors were calculated using the formula ((length × width^2)/2).
For immunohistochemical analysis, the tumor tissues were fixed with 3.7% formalin in PBS and embedded in paraffin. The paraffin sections were incubated with a primary antibody against the Ki-67, a cell proliferation marker, and visualized via Dako EnVision kit (Dako, Jena, Germany). The sections were counterstained with hematoxylin.

[5] = Blood biochemistry of tumor-bearing mice; type: in vivo, C57BL/6 mice; conditions: serum; for Creatinine: below limit of detection; for BUN: mean ± SD (control 8.6 ± 0.8); for ALT: mean ± SD (control 14.8 ± 2.5); for AST: mean ± SD (control 79.8 ± 35.3)
Method: The blood sera were collected from the retro-orbital plexus of tumor-bearing mice treated with Hu.A. The levels of AST, ALT, BUN, and creatinine were analyzed by a commercial service provided by Green Cross Co. (Yongin, Korea).

PDHK1-4 = PDHK1-4 protein expression (western blot) in DLD-1 cells; type: cell-based, human; conditions: serum-free medium, 4 h
Method: Figure 2 Hu.A reduced the PDHK1 activity and promoted oxidative phosphorylation (OXPHOS) in DLD-1 cells. (A) In vitro PDHK1 kinase assay was performed. (B, C) DLD-1 cells were treated with Hu.A in serum-free medium for 4 h. The levels of phosphorylated pyruvate dehydrogenase E1α subunit (PDHA) (B), and PDHK1-4 (C) were analyzed using western blot assay. PDHA (B) and GAPDH (C) were used as loading controls. (D) The intensity of bands (PDHK1-4/GAPDH) from three independent experiments was measured and indicated by mean ± SD. (E) DLD-1 cells were treated with Hu.A in serum-free medium for 6 h. O2 consumption rate was measured by using commercially available Oxygen Consumption Rate Assay Kit. (F) Lactate production was measured by lactate fluorometric assay kit (right panel). The data are shown as mean ± SD, respectively. **, p < 0.01 compared with control.
Western blotting assay was carried out as described previously. Briefly, equal amounts (20 μg) of the cell lysates were separated by sodium dodecyl sulfate–polyacrylamide gel electrophoresis and were transferred onto the nitrocellulose membrane (Hybond ECL; GE Healthcare). The membrane was incubated with specific antibodies. The bands of the target proteins were detected using ECL Plus reagent and ImageQuant LAS 4000 (GE Healthcare, Menlo Park, CA, USA).

HL-60 = test system: HL-60; design: method as in PMID 19952458; conditions: read-out: IC50 against human cancer cell line; cited from earlier work
A549 = test system: A549; design: method as in PMID 19952458; conditions: read-out: IC50 against human cancer cell line; cited from earlier work
HSC-2 = test system: HSC-2; design: method as in PMID 19952458; conditions: read-out: IC50 against human cancer cell line; cited from earlier work
HSC-4 = test system: HSC-4; design: method as in PMID 19952458; conditions: read-out: IC50 against human cancer cell line; cited from earlier work
PDHK1 [6] = target: T2, PDHK1; conditions: read-out: IC50 for inhibiting PDHK1 activity; cited from earlier work
PDHK1 [7] = target: T2, PDHK1; conditions: cited from earlier work
tumor growth = conditions: JX06 is ref 12; cited from earlier work

With `CC1OC(OC2C(OC3CCC4(C)C(CCC5(C)C4CC=C4C6CC(C)(C)CCC6(C(=O)O)CCC45C)C3(C)C)OCC(O)C2O)C(O)C(OC2OCC(O)C(O)C2O)C1O` (stereo not drawn) [Hu.A, Huzhangoside A] the cytotoxic effect (MDA-MB-231 cells) was “more than 80%”, the cytotoxic effect (HT-29 cells) was “more than 80%” and the cytotoxic effect (Hep3B cells) was “more than 80%”. For the same compound, the cytotoxic effect (DLD-1 cells [1]; 3 μM, 24 h) was “more than 80%”, the “cytotoxic effect of Hu.A after MitoTEMPO pre-treatment” value (DLD-1 cells [1]; DLD-1, MitoTEMPO 50 μM 1 h pre-treatment, then 3 μM Hu.A 6 h, serum-free) was “significantly reduced” and the cytotoxic effect (LLC cells) was “more than 80%”. For the same compound, the “kinase activity of GST-PDHK1” value (GST-PDHK1) was “significantly inhibited”, the O2 consumption rate (DLD-1 cells [2]) was “increased” and the “secretory lactate levels in media” value (DLD-1 cells [3]) was “reduced”. The “[α-32P]ATP-binding activity of PDHK1” value (PDHK1 [4]) was “decreased”, the “binding of PDHK and PDC E2 subunit” value (PDHK and PDC E2 subunit) was “did not significantly affect” and the “levels of cleaved forms of caspase-3, -9, and PARP in tumor tissues” value (LLC cell allograft; 1 mg/kg, western blot) was “increased”. For the same compound, the “growth of the allograft LLC cells (tumor volume and weight)” value (LLC cell allograft; 0.1, 0.5 and 1 mg/kg/day i.p., dose-dependent) was “significantly suppressed”, the “staining of Ki-67 in tumor tissues” value (LLC cell allograft; immunohistochemistry, Hu.A-treated mice) was “reduced” and the “phosphor-PDHA levels in tumor tissues” value (LLC cell allograft; western blot, Hu.A-treated mice) was “markedly decreased”. It also gave a Creatinine ([5]; 0.1 mg/kg i.p.) of less than 0.17 mg/dL, a BUN ([5]; 0.1 mg/kg i.p.) of 8.8 ± 0.9 mg/dL and an ALT ([5]; 0.1 mg/kg i.p.) of 16.7 ± 2.5 U/L. It also gave an AST ([5]; 0.1 mg/kg i.p.) of 94.5 ± 41.0 U/L, a Creatinine ([5]; 0.5 mg/kg i.p.) of less than 0.17 mg/dL and a BUN ([5]; 0.5 mg/kg i.p.) of 8.9 ± 0.6 mg/dL. For the same compound, the ALT ([5]; 0.5 mg/kg i.p.) was 19.2 ± 5.6 U/L, the AST ([5]; 0.5 mg/kg i.p.) was 87.5 ± 33.8 U/L and the Creatinine ([5]; 1 mg/kg i.p.) was less than 0.17 mg/dL. The BUN ([5]; 1 mg/kg i.p.) was 8.4 ± 1.0 mg/dL, the ALT ([5]; 1 mg/kg i.p.) was 19.6 ± 3.1 U/L and the AST ([5]; 1 mg/kg i.p.) was 95.2 ± 43.1 U/L. The “protein levels of PDHK isozymes (PDHK1-4)” value (PDHK1-4) was “did not significantly change”, the IC50 (HL-60) was 2.3 µM and the IC50 (A549) was 1.5 µM. The IC50 (HSC-2) was 5.7 µM and the IC50 (HSC-4) was 11.7 µM.
For `S=C(SSC(=S)N1CCOCC1)N1CCOCC1` [JX06], the IC50 (PDHK1 [6]) is given as 0.049 µM, the “concentration administered to suppress the intracellular PDHK1 activity” value (PDHK1 [7]) is given as 10 µM and the “concentration required for inhibition of tumor growth in in vivo experiments” value (tumor growth) is given as 40 to 80 mg/kg.
In the case of `C[C@@H]1C[C@H]2O[C@@H]2/C=C\C=C\C(=O)Cc2c(Cl)c(O)cc(O)c2C(=O)O1` [radicicol], the “concentration administered to suppress the intracellular PDHK1 activity” value (PDHK1 [7]) is given as 10 µM.
